Entries after “also recorded” stand apart in the source; their conditions may differ.
Experiments:
[1] = test system: isolated rat aorta; test: In vitro vasorelaxation, cumulative concentration-response curves on rat aortic rings contracted with epinephrine; assay type: cell-based; conditions: isolated rat aorta pre-treated with 1 μM epinephrine
Text: Male Sprague Dawley rats were anaesthetized using intraperitoneal injection of ketamine and xylazine (50 and 10 milligram per kilogram, respectively) and the thoracic aorta, the large upper portion of the descending aorta, starting at the caudal border of the chest bone, was removed thereafter, while carefully removing the paraadventetial tissue surrounding the vessel. Aortae were cut into rings of 4-5 millimeters and mounted onto the tissue path. The path buffer (Krebs-bicrbonate) was constantly gassed with carbogen and maintained at 37° C. The rings were preloaded under 2 g tension and equilibrated for 90 minutes, while refreshing the buffer every 15 minutes. After stabilization, the rings were contracted with epinephrine (1 μM). Cumulative Concentration-Response Curves (CCRC) were measured for the vasorelaxing effect induced by adding various concentrations, ranging from 10^−10 M to 10^−5 M of Pet-2, Pet-3, Pet-7, Pet-8, Pet-12, Pet-24, Pet-43, Pet-59, Pet-147, Pet-152 and Pet-154, and glyceryltrinitrate (GTN), according to the procedure described in Feelich et al., Molecular Pharmacology, 56:243-253 (1999). The vehicle, which was used for this experiment was water:ethanol:propyleneglycol at proportional ratio of 1:1:1.
The vasorelaxing effect of the thiazole-derived NO-donors according to the present invention was measured on slices of thoracic aorta of rats contracted with epinephrine, as described hereinabove.
The obtained results for Pet-2, Pet-3, Pet-7, Pet-8, Pet-12, Pet-24, Pet-43, Pet-59, Pet-147, Pet-152 and Pet-154 are presented in FIGS. 2-14, and are summarized in Table 3 below.

[2] = test system: c-GMP in slices of thoracic aorta of rats; test: Cyclic-GMP measurement in aortic rat tissue (radioimmunoassay); assay type: cell-based; conditions: for levels of cGMP as compared with GTN: isolated rat aorta, FIGS. 25, 27, 33; for cGMP Post-infusion: rat aorta, post-infusion (repeated treatment)
Experimental: GTN (10^−6 M) was added to the chamber and, 1 minute after exposure to the drug, rings (usually 3-5) were taken, wrapped with aluminum foil and immediately frozen in liquid nitrogen for storage. Control sample group was treated with the vehicle solution only. At the time of analysis, rings were thawed, blotted over a dry gauzed and weighted. A known weight of tissue was homogenized in 2 ml ice-cold modified Hank's balanced salt solution containing (in gram/liter) NaCl 8; KCl 0.4; glucose 1; KH2PO4 0.06; Na2HPO4 0.047; Phenol red 0.017 and further containing 25 mM EDTA (disodium salt). The homogenate was centrifuged at 4000 g (force units) for 10 minutes at 2-4° C. and the supernatant was thereafter transferred into fresh pre-cooled test tube containing 1 ml of acetonitrile. The tubes were vortex mixed for a few seconds and subsequently centrifuged at 4000 g for 5 minutes at 2-4° C., to remove the precipitated protein. Each supernatant was transferred into a clean test tube and evaporated to dryness under a stream of nitrogen at 55° C. The dry residue was reconstituted with 10 volumes of Tris-EDTA buffer pH 7.5 (0.05 M Tris containing 4 mM EDTA). Aliquots of 100 μl of the reconstituted solution in duplicate were used for c-GMP measurements using Amersham RIA kit, as is described in Haj-Yehia & Benet [Pharmacology, 1995, 273, 1, pp. 94-100]. Standard curves were plotted with six concentrations (0, 0.5, 1, 2, 4 and 8 pmoles of c-GMP per tube).
The NO-tolerance effect of GTN and NO-donor compounds according to the present invention was measured by following the production of c-GMP in slices of thoracic aorta of rats. Thus, the production of c-GMP was measured as described in the methods section above for the reference NO-donor compound GTN, and for the NO-donors of the present invention Pet-2, Pet-3, Pet-7, Pet-8, Pet-10, Pet-12, Pet-24, Pet-59, Pet-147, Pet-149, Pet-152, Pet-154 and Pet-155.

[3] = test system: cGMP in thoracic aorta of rats treated in vivo; test: Induction of in vivo nitrate tolerance (16 hour infusion, then cGMP in isolated aorta); parameters: species or system rat; conditions: rats infused in vivo 16 hours, aorta re-exposed to the compound
Experimental: Male Sprague Dawley rats (220 to 250 grams) were housed under constant temperature and humidity conditions. Light was maintained at a 12/12 light dark cycle. Except for 12 hours before the experiment, when food fasting was initiated, all rats had free access to standard rat pellet diet and tap water. The animals were anesthetized by intraperitoneal injection of ketamine and xylazine combination (50 and 10 milligram per kilogram, respectively). […] The catheters were filled with normal saline solution containing 1000 IU/ml of heparin and plugged with a metal pin. Catheters were externalized to the back of the neck region and secured by a polyester felt disk.
After implantation, the rats were individually housed until they regained their preoperative weight and appeared healthy (3 to 4 days post-operation). At this time point (day 0), an osmotic mini-pump (Alza Corp., Palo Alto, Calif.) delivering constant volume (10 μl/hour) of vehicle or drug was connected to one of the intravenous catheters.
For inducing tolerance to the tested NO-donor according to the present invention, the animals received 200 μg/hour of the tested compound for 16 hours (short-term-induced tolerance). A similar number of animals were processed by the same surgical procedure and received the vehicle alone (10 μl/hour of a solution consisting of 30% ethanol and 30% propylene glycol in sterile distilled water for injection).
At the end of the infusion periods used for the development of tolerance (16 hour), the rats were anesthetized as described above, the two catheters were externalized and the delivering catheters were disconnected from the mini-pump. The abdomen was opened by midline incision and the thoracic aorta were isolated, washed and cleaned from the surrounding tissues. Strips of the treated aortas were pooled in chambers containing Krebs-Hanseliet buffer (10 ml), and exposed to 1 μM of the tested NO-donor (final concentration) for 120 seconds. The tissues were quickly collected and frozen in liquid nitrogen for cGMP measurement, described hereinabove.

[4] = test system: isolated rat aorta; test: In vitro induction of tolerance to NO releasing compounds (vasorelaxation of pre-exposed aortic rings, incl. cross-tolerance); assay type: cell-based; conditions: rat aorta pre-treated with epinephrine and then 0.44 mM of the compound
Experimental: Aortic rings were prepared as described hereinabove, and were exposed to 0.44 mM GTN (vehicle was water:ethanol:propyleneglycol at proportional ratio of 1:1:1) for 1 hour before CCRC construction, to thereby induce tolerance to nitroglycerine. At the end of the tolerance induction period, rings were thrice washed with the path buffer (Krebs-bicrbonate) every 15 minutes for the following hour and then CCRC for vasorelaxation on GTN-induced tolerance rings were constructed for GTN (pretreated versus untreated rings, FIG. 15), in order to verify the ability to induce and measure GTN tolerance induction in vitro
Attempted induction of tolerance to the NO-donating compounds of the present invention was performed under the same conditions as for GTN. Thus, in an exemplary experiment, rings were exposed to 0.44 mM solution of Pet-3 in the attempt to induce tolerance for Pet-3. CCRC were then measured for the vasorelaxing effect of Pet-3 on a group of rings which were pre-exposed to Pet-3 as to induce tolerance to Pet-3, and for an untreated control group. The above protocol was repeated with Pet-2, Pet-7, Pet-8, Pet-12, Pet-24, Pet-43, Pet-149 and Pet-152.
Cross-tolerance studies were conducted using the same technique described above for measuring vasorelaxation of aortic rings from rats. Two groups of aortic rings samples were pre-treated with GTN, then one group was measured for vasorelaxation by GTN and the second group for vasorelaxation by Pet-12, an exemplary NO-donor according to the present invention. For the opposite cross-tolerance studies, two groups of aortic rings samples were pre-treated with Pet-12, then one group was measured for vasorelaxation by GTN and the second group for vasorelaxation by Pet-12.

[5] = test system: anesthetized hypertensive Sprague-Dawley male rats; test: Hypotensive effects: mean arterial pressure after iv bolus in phenylephrine-treated rats; assay type: in vivo, rat; conditions: rats pre-treated in vivo with phenylephrine; iv bolus 10-100 micrograms
Text: These techniques were also used to detect tolerance induction by the NO-donors of the present invention and by GTN. For c-GMP levels and tolerance development, the rat's thoracic aorta was isolated after exposure to the tested compound in vivo, and measured as described above in the in vitro assays.
Mean arterial pressure (MAP) was monitored and determined during bolus infusion of Pet-2, Pet-3, Pet-7, Pet-8, Pet-12 and Pet-13. Briefly, polyethylene catheters (PE50) were inserted into the carotid artery and into the jugular vein of anesthetized hypertensive Sprague-Dawley male rats (200-300 grams). A blood pressure recorder was placed within the carotid artery. Phenylephrine (0.1 mg) was then injected and the mean arterial blood pressure (MABP) was monitored continuously until a stable baseline was reached. The hypotensive effects of intravenous (iv) bolus doses (0.1 mg of each tested compound) administered intravenously at the jugular vein in minimal volume of vehicle (0.2 ml per dose) were evaluated. Five minutes were allowed between each dose, during which the maximal decrease in MAP was recorded and a dose-response graph comparing the hypotensive effect of the compounds was constructed.

Compound | vasorelaxation effect as compared with glyceryltrinitrate (words) [1] | levels of cGMP as compared with GTN [2] | cGMP Post-infusion [2] [pmol/g tissue] | tolerance in vivo: cGMP level in aorta following repeated treatment [3] | tolerance induction after pre-treatment with the same compound [4] | hypotensive / vasorelaxation effect on heightened mean arterial blood pressure [5] | vasorelaxation effect as compared with glyceryltrinitrate [1] [fold]
Cc1nc(NC(=O)[C@@H](C)c2ccc(CC(C)C)cc2)sc1CCO[N+](=O)[O-] (stereo in doubt) [Pet-152, 2-(4-Isobutyl-phenyl)-N-[4-methyl-5-(2-nitrooxy-ethyl)-thiazol-2-yl]-propionamide] | superior vasorelaxation effect | increased levels of cGMP |  |  |  |  | 
CCc1nc(C)c(CCO[N+](=O)[O-])s1 [Pet-2, 2-Ethyl-4-methyl-5-(2-nitrooxy-ethyl)-thiazole] | superior vasorelaxation effect |  | 140 ± 13 | absence of tolerance induction; also recorded: absence of tolerance effect; also recorded: remained substantially unchanged |  |  | 
Cc1nc(C)c(CCO[N+](=O)[O-])s1 [Pet-3, 2,4-Dimethyl-5-(2-nitrooxy-ethyl)-thiazole] | superior vasorelaxation effect | increased levels of cGMP | 118 ± 10 |  | absence of tolerance induction |  | 
Cc1nc(N(C)C)sc1CCO[N+](=O)[O-] [Pet-7, Dimethyl-[4-methyl-5-(2-nitrooxy-ethyl)-thiazol-2-yl]-amine] | superior | increased levels of cGMP | 123 ± 12 |  | absence of tolerance induction | vasorelaxation effect | 10
Cc1nc(-c2ccccc2)sc1CCO[N+](=O)[O-] [Pet-8, 4-Methyl-5-(2-nitrooxy-ethyl)-2-phenyl-thiazole] | superior vasorelaxation effect | increased levels of cGMP | 136 ± 12 |  |  |  | 
Cc1nc(N)sc1CCO[N+](=O)[O-] [Pet-10, 4-methyl-5-(2-nitrooxy-ethyl)-thiazole-2-ylamine] |  | increased levels of cGMP |  |  |  |  | 
Cc1nc(CCCCc2nc(C)c(CCO[N+](=O)[O-])s2)sc1CCO[N+](=O)[O-] [Pet-13] |  |  |  |  |  | vasorelaxation effect | 
CNc1cncc(-c2nc(C)c(CCO[N+](=O)[O-])s2)n1 [Pet-24, Methyl-{6-[4-methyl-5-(2-nitrooxy-ethyl)-thiazol-2-yl]-pyrazin-2-yl}-amine] |  | increased levels of cGMP | 112 ± 10 |  | absence of tolerance induction |  | 
Cc1nc(Nc2nc(C)c(CCO[N+](=O)[O-])s2)sc1CCO[N+](=O)[O-] [Pet-43, Bis-[4-methyl-5-(2-nitrooxy-ethyl)-thiazol-2-yl]-amine] | superior vasorelaxation effect |  |  |  | absence of tolerance induction |  | 
Cc1nc(-c2ccc(C(F)(F)F)cc2)sc1CCO[N+](=O)[O-] [Pet-59, 4-Methyl-5-(2-nitrooxy-ethyl)-2-(4-trifluoromethyl-phenyl)-thiazole] | superior vasorelaxation effect | increased levels of cGMP |  |  |  |  | 
CCNc1nc(C)c(CCO[N+](=O)[O-])s1 [Pet-147, Ethyl-[4-methyl-5-(2-nitrooxy-ethyl)-thiazol-2-yl]-amine] |  | increased levels of cGMP |  |  |  |  | 
Cc1nc(Nc2cccc3ccccc23)sc1CCO[N+](=O)[O-] [Pet-149, [4-Methyl-5-(2-nitrooxy-ethyl)-thiazol-2-yl]-naphthalen-1-yl-amine] | superior vasorelaxation effect | increased levels of cGMP | 115 ± 14 |  | absence of tolerance induction |  | 
Cc1nc(NC(=O)c2cccnc2)sc1CCO[N+](=O)[O-] [Pet-154, N-[4-methyl-5-(2-nitrooxy-ethyl)-thiazol-2-yl]-nicotinamide] |  | increased levels of cGMP |  |  |  |  | 
C=CCNc1nc(C)c(CCO[N+](=O)[O-])s1 [Pet-155, allyl-[4-methyl-5-(2-nitrooxy-ethyl)-thiazol-2-yl]-amine] | superior vasorelaxation effect | increased levels of cGMP |  |  |  |  | 
